Measured values taken from patent publication US6432883B1, “Methods of treating plants with glycolic acid” (Emerald BioAgriculture Corporation, priority 2000, dated 2002).

How the values were obtained:
[1] = system: cabbage; experiment: Cabbage drought stress: fresh and dry weights; format: in vivo
Procedure: Market Prize, F1 cabbage seed, lot 88955, as described in example 7, was treated identically as in example 7, except that drought stress was imposed by withholding water 7 days following the second spray and continuing to withhold water for 13 sequential days thereafter. Drought tolerance was assessed by measuring both the fresh and dried weights of the plants.

[2] = system: cabbage; experiment: Cabbage plant growth stimulation: fresh and dry weights; format: in vivo; conditions: 5, 15 or 50 ppm spray, FIGS. 1 and 2
Procedure: Market Prize, F1 cabbage seed, lot 88955, was purchased from Harris Seeds, Inc. (Rochester, N.Y.) and grown 2 plants per 4″×4″×4″ pot, 1 pot per experimental unit and 6 experimental units per each of 4 replications. The plants were spray-treated first at 2 true leaves and again 7 days later with 8 ml solution per pot.
The treatments included a non-treated control (NTC), 0.05% Breakthru® (a silicone-based surfactant obtained from Goldschmidt Chemical, Hopewell, Va.) control, and 5, 15 or 50 ppm of either Glypure® (F12; 99% high purity crystalline glycolic acid), or ammonia-neutralized Glypure® [F18; a 50% (w/v) solution made by neutralizing 70% high purity glycolic acid from DuPont with ammonium hydroxide to a pH of 4.4. Growth stimulation was assessed by measuring both the fresh and dry weights of the plants.

[3] = system: Sclerotinia minor; experiment: Colony radius of plant pathogen on amended potato dextrose agar; format: cell-based; conditions: in PDA, 4 days, about 23° C., FIG. 5
Excerpt: Sclerotinia minor culture SaM-18 was received from Krishna Subbarro, Ph.D., Univ. Calif., Davis. Potato dextrose agar (PDA) powder was purchased from Baltimore Biological Laboratory, Inc. (BBL), ammonium glycolate and glycolic acid from DuPont Specialty Chemicals and BreakThru® surfactant from Goldschmidt Chemical Corp.
PDA was made, poured into sterile disposable petri dishes (100×15 mm) and inoculated with S. minor sclerotia to start new cultures on day zero. These cultures had reached an appropriate stage of maturation for use for use in the test after two weeks of growth. Multiple 1 liter containers of PDA were made and autoclaved on day 14. These PDA containers remained in the circulating water bath at 46° C. until the solutions were ready for addition (about 2 hrs.). The glycolic acid-containing compositions were added to the 46° C. PDA through a syringe-tip 0.2 μm-pore sterile filtration disc in a positive laminar-flow sterile hood and thoroughly mixed before returning to the 46° C. water bath to await pouring. Stacks of 22 dishes were poured for each medium type and allowed to solidify and cool overnight.
On day 15, soft, white to gray, sclerotial clumps of hyphae were picked from the culture dishes with heat sterilized forceps and one clump was transferred to the center of each test medium dish. Twenty dishes of each inoculated medium were stacked and replaced into the plastic sleeves they were originally packaged in for incubation at room temperature (about 23° C.). After 4 days of growth, some of the cultures had just reached the edges of the medium. The radius of each colony was measure in mm.
Treatments were water controls, 0.05% surfactant controls, 5, 15, 50, 75 and 100 ppm of glycolic acid (F12) and 5, 15, 50, 100 and 750 ppm of ammonia-neutralized glycolic acid (F18; i.e., ammonium glycolate).

N.O=C(O)CO [F18, ammonium glycolate]
resistance to the effects of drought stress compared to equivalent amounts of F12 ([1]; 5, 15 and 50 ppm, plant weight): statistically significantly greater effect
fresh weight of the cabbage compared to controls ([1]; drought, water withheld 13 days, 5, 15, 50 ppm, FIG. 3): statistically significantly increased
dry weight of the cabbage compared to controls ([1]; drought, water withheld 13 days, 5, 15, 50 ppm, FIG. 4): statistically significantly increased
plant growth (fresh and dry weights) compared to the controls [2]: statistically significantly stimulated plant growth
plant growth compared to equivalent amounts of F12 [2]: stimulated plant growth to a greater extent
Sclerotinia growth compared to equivalent amounts of glycolic acid [3]: significantly more
growth of Sclerotinia minor (colony radius) compared to controls [3]: statistically significantly increased the growth
